Data: ChEMBL document CHEMBL1153388, “N(epsilon)-thioacetyl-lysine-containing tri-, tetra-, and pentapeptides as SIRT1 and SIRT2 inhibitors” (J Med Chem, 2009)
Where a SMILES comes first, the peptide text is derived from it. [ ]: non-standard residue; d: D form. Lys(Thioacetyl) = CC(=S)NCCCC[C@H](N)C(=O)O

Experiments:
[1] = target: T1, NAD-dependent protein deacetylase sirtuin-2 (Homo sapiens, UniProt Q8IXJ6); experiment: Inhibition of recombinant SIRT2 preincubated for 5 mins before addition of substrate measured after 3 hrs by fluorescence-based assay
T1 sequence (Q8IXJ6 whole entry): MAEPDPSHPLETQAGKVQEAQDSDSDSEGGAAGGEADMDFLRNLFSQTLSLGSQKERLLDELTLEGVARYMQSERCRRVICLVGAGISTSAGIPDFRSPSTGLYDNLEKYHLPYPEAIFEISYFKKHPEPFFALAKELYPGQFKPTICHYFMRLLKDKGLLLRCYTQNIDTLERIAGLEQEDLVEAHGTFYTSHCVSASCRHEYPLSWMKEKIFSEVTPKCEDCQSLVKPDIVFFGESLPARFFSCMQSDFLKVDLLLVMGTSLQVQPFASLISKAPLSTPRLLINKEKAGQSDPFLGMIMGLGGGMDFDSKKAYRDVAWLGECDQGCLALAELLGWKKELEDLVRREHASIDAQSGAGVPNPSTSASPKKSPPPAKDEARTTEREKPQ

[2] = target: T2, NAD-dependent protein deacetylase sirtuin-1 (Homo sapiens, UniProt Q96EB6); experiment: Inhibition of recombinant SIRT1 preincubated for 5 mins before addition of substrate measured after 1 hr by fluorescence-based assay
T2 sequence (Q96EB6 whole entry): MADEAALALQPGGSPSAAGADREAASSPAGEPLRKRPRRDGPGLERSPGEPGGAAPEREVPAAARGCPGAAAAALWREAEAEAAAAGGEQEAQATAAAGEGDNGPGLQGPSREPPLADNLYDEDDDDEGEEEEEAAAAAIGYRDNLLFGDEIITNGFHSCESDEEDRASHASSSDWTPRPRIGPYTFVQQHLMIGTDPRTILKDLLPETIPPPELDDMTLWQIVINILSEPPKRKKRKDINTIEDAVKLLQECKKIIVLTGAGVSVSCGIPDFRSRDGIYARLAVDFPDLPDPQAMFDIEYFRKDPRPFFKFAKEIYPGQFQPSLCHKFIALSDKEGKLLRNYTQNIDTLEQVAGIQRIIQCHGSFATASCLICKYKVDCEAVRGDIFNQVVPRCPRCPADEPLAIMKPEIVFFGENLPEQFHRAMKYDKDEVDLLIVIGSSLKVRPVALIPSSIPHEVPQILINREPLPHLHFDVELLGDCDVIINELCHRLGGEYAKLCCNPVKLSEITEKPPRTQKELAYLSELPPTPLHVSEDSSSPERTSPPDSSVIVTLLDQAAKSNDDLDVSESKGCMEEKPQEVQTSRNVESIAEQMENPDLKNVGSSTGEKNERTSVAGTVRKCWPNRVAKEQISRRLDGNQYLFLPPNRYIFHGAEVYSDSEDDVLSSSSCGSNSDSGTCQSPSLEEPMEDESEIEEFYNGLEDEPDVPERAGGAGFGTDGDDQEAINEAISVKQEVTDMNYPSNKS

[3] = target: T3, NAD-dependent protein deacetylase sirtuin-2 (Homo sapiens) (UniProt Q8IXJ6); experiment: Inhibition of recombinant SIRT2 at 200 uM preincubated for 5 mins before addition of substrate measured after 3 hrs by fluorescence-based assay
T3 sequence (whole entry): T1 sequence (Q8IXJ6 whole entry)

[4] = target: T4, NAD-dependent protein deacetylase sirtuin-1 (Homo sapiens) (UniProt Q96EB6); experiment: Inhibition of recombinant SIRT1 at 200 uM preincubated for 5 mins before addition of substrate measured after 1 hr by fluorescence-based assay
T4 sequence (whole entry): T2 sequence (Q96EB6 whole entry)

[5] = target: T1, NAD-dependent protein deacetylase sirtuin-2; experiment: Inhibition of GST-tagged SIRT2 expressed in Escherichia coli after 60 mins by Dixon plot
[6] = target: T2, NAD-dependent protein deacetylase sirtuin-1; experiment: Inhibition of GST-tagged SIRT1 expressed in Escherichia coli after 10 mins by Dixon plot

IC50 [1] [µM] | IC50 [2] [µM] | SMILES | also measured
238 | 23.2 | CC[C@H](C)[C@H](NC(=O)[C@H](CC(C)C)NC(=O)[C@H](CCCCNC(C)=S)NC(=O)[C@H](CC(=O)O)NC(=O)[C@@H](N)CO)C(=O)O (H-SD[Lys(Thioacetyl)]LI-OH) | 
72.8 | 6.7 | CC[C@H](C)[C@H](NC(=O)[C@H](C)NC(=O)[C@H](CCCCNC(C)=S)NC(=O)[C@H](CC(=O)O)NC(=O)[C@@H](N)CO)C(=O)O (H-SD[Lys(Thioacetyl)]AI-OH) | 
83.4 | 4.5 | CC[C@H](C)[C@H](NC(=O)[C@@H](NC(=O)[C@H](CCCCNC(C)=S)NC(=O)[C@@H](N)CC(=O)O)[C@@H](C)O)C(=O)O (H-D[Lys(Thioacetyl)]TI-OH) | 
84.6 | 8.8 | CC(=S)NCCCC[C@H](NC(=O)[C@H](CC(=O)O)NC(=O)[C@@H](N)CO)C(=O)N[C@H](C(=O)N[C@@H](C)C(=O)O)[C@@H](C)O (H-SD[Lys(Thioacetyl)]TA-OH) | 
16.5 | 0.55 | CSCC[C@H](NC(=O)[C@H](CC(C)C)NC(=O)[C@H](CCCCNC(C)=S)NC(=O)[C@H](C)NC(=O)[C@@H](N)Cc1cnc[nH]1)C(=O)O (H-HA[Lys(Thioacetyl)]LM-OH) | 
7.6 | 0.23 | CC[C@H](C)[C@H](NC(=O)[C@@H](NC(=O)[C@H](CCCCNC(C)=S)NC(=O)[C@H](CCCCN)NC(=O)[C@@H](N)Cc1cnc[nH]1)[C@@H](C)O)C(=O)O (H-HK[Lys(Thioacetyl)]TI-OH) | 
3.8 | 0.18 | CSCC[C@H](NC(=O)[C@H](C)NC(=O)[C@H](CCCCNC(C)=S)NC(=O)[C@H](CCCCN)NC(=O)[C@@H](N)Cc1cnc[nH]1)C(=O)O (H-HK[Lys(Thioacetyl)]AM-OH) | 
6.9 | 0.18 | CC[C@H](C)[C@H](NC(=O)[C@@H](NC(=O)[C@H](CCCCNC(C)=S)NC(=O)[C@H](CCCCN)NC(=O)[C@@H](N)CO)[C@@H](C)O)C(=O)O (H-SK[Lys(Thioacetyl)]TI-OH) | 
175 | 12 | CC(=S)NCCCC[C@H](NC(=O)[C@@H](N)CC(=O)O)C(=O)N[C@H](C(=O)O)[C@@H](C)O | 
 |  | CC(=S)NCCCC[C@H](NC(=O)[C@H](CC(=O)O)NC(=O)[C@@H](N)CO)C(=O)O | inhibition [3]: 13.9%; inhibition [4]: 11.8%
49.8 | 0.33 | CSCC[C@H](NC(=O)[C@H](CC(C)C)NC(=O)[C@H](CCCCNC(C)=S)NC(=O)[C@@H](N)CCCCN)C(=O)O (H-K[Lys(Thioacetyl)]LM-OH) | 
33.3 | 0.9 | CC(=S)NCCCC[C@H](NC(=O)[C@H](CCCCN)NC(=O)[C@@H](N)Cc1cnc[nH]1)C(=O)N[C@@H](CC(C)C)C(=O)N[C@@H](C)C(=O)O (H-HK[Lys(Thioacetyl)]LA-OH) | 
19.9 | 0.48 | CC(=S)NCCCC[C@H](NC(=O)[C@H](CCCCN)NC(=O)[C@@H](N)Cc1cnc[nH]1)C(=O)N[C@@H](CC(C)C)C(=O)O (H-HK[Lys(Thioacetyl)]L-OH) | 
151 | 0.57 | CC(=S)NCCCC[C@H](NC(=O)[C@@H](N)CCCCN)C(=O)N[C@@H](CC(C)C)C(=O)O | 
10.6 | 1.4 | CSCC[C@H](NC(=O)[C@@H](NC(=O)[C@H](CCCCNC(C)=S)NC(=O)[C@H](CC(=O)O)NC(=O)[C@@H](N)CO)[C@@H](C)O)C(=O)O (H-SD[Lys(Thioacetyl)]TM-OH) | 
31.1 | 4.3 | CC[C@H](C)[C@H](NC(=O)[C@@H](NC(=O)[C@H](CCCCNC(C)=S)NC(=O)[C@H](CC(=O)O)NC(=O)[C@@H](N)Cc1cnc[nH]1)[C@@H](C)O)C(=O)O (H-HD[Lys(Thioacetyl)]TI-OH) | 
8.5 | 0.38 | CSCC[C@H](NC(=O)[C@H](CC(C)C)NC(=O)[C@H](CCCCNC(C)=S)NC(=O)[C@H](CCCCN)NC(=O)[C@H](C)N)C(=O)O (H-AK[Lys(Thioacetyl)]LM-OH) | 
44 | 11.1 | CC(=S)NCCCC[C@H](NC(=O)[C@H](CC(=O)O)NC(=O)[C@@H](N)CO)C(=O)N[C@H](C(=O)O)[C@@H](C)O (H-SD[Lys(Thioacetyl)]T-OH) | 
5.5 | 0.22 | CC[C@H](C)[C@H](NC(=O)[C@@H](NC(=O)[C@H](CCCCNC(C)=S)NC(=O)[C@H](C)NC(=O)[C@@H](N)CO)[C@@H](C)O)C(=O)O (H-SA[Lys(Thioacetyl)]TI-OH) | 
37.4 | 3.2 | CC[C@H](C)[C@H](NC(=O)[C@@H](NC(=O)[C@H](CCCCNC(C)=S)NC(=O)[C@H](CC(=O)O)NC(=O)[C@H](C)N)[C@@H](C)O)C(=O)O (H-AD[Lys(Thioacetyl)]TI-OH) | 
6.4 | 0.33 | CSCC[C@H](NC(=O)[C@H](CC(C)C)NC(=O)[C@H](CCCCNC(C)=S)NC(=O)[C@H](CCCCN)NC(=O)[C@@H](N)Cc1cnc[nH]1)C(=O)O (H-HK[Lys(Thioacetyl)]LM-OH) | IC50 [5]: 10 µM; IC50 [6]: 10 µM
92.9 | 10.8 | CSCC[C@H](NC(=O)[C@H](CC(C)C)NC(=O)[C@H](CCCCNC(C)=S)NC(=O)[C@H](CC(=O)O)NC(=O)[C@@H](N)CO)C(=O)O (H-SD[Lys(Thioacetyl)]LM-OH) | 
29.1 | 5 | CC[C@H](C)[C@H](NC(=O)[C@@H](NC(=O)[C@H](CCCCNC(C)=S)NC(=O)[C@H](CC(=O)O)NC(=O)[C@@H](N)CO)[C@@H](C)O)C(=O)O (H-SD[Lys(Thioacetyl)]TI-OH) | 
